Laboratory results from the supplement of paper PMC10307832.

How the values were obtained:
Assay in all cases: relative viability (nuclei count vs DMSO), 5 days (fraction); higher = more cells survive
BAM7 + Tozasertib = compound: CCOC1=CC=CC=C1N=NC2=C(NN(C2=O)C3=NC(=CS3)C4=CC=CC=C4)C [BAM7] + Cc1cc(Nc2cc(N3CCN(C)CC3)nc(Sc3ccc(NC(=O)C4CC4)cc3)n2)n[nH]1 [Tozasertib] (partner 0.1 µM)
Outline: (§1)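 Medians of duplicate plates are given as relative viability. That measure is the nuclei count in treated wells divided by the count in vehicle wells. Counts were taken on 4× images of lung cancer cell lines in 1536-well plates, 5 days after pin-tool dosing the day after seeding with one drug alone or a fixed anchor-drug dose plus five library-drug doses (not always all listed) in √10 steps.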

[1] = compound: CCn1c(-c2nonc2N)nc2c(C#CC(C)(C)O)ncc(OC[C@H]3CCCNC3)c21 + CC1(C)CCC(c2ccc(Cl)cc2)=C(CN2CCN(c3ccc(C(=O)NS(=O)(=O)c4ccc(N[C@H](CCN5CCOCC5)CSc5ccccc5)c(S(=O)(=O)C(F)(F)F)c4)cc3)CC2)C1 [Navitoclax] (partner 0.5 µM)
Outline: as §1

[2] = compound: CCn1c(-c2nonc2N)nc2c(C#CC(C)(C)O)ncc(OC[C@H]3CCCNC3)c21 + C[C@@H](Oc1cc(-c2cnn(C3CCNCC3)c2)cnc1N)c1c(Cl)ccc(F)c1Cl [Crizotinib] (partner 1 µM)
Outline: as §1

[3] = compound: CCn1c(-c2nonc2N)nc2c(C#CC(C)(C)O)ncc(OC[C@H]3CCCNC3)c21 + Nc1nc2[nH]cc(CCc3ccc(C(=O)N[C@@H](CCC(=O)O)C(=O)O)cc3)c2c(=O)[nH]1 [Pemetrexed] (partner 0.2 µM)
Outline: as §1

Cell Line | relative viability (BAM7 + Tozasertib; first compound 0.5 µM) | relative viability (BAM7 + Tozasertib; first compound 5 µM) | relative viability (BAM7 + Tozasertib; first compound 15.81 µM) | relative viability (BAM7 + Tozasertib; first compound 50 µM) | relative viability ([1]; first compound 0.01 µM) | relative viability ([1]; first compound 0.03162 µM) | relative viability ([1]; first compound 0.1 µM) | relative viability ([1]; first compound 0.3162 µM) | relative viability ([1]; first compound 1 µM) | relative viability ([2]; first compound 0.01 µM) | relative viability ([2]; first compound 0.03162 µM) | relative viability ([2]; first compound 0.1 µM) | relative viability ([2]; first compound 0.3162 µM) | relative viability ([2]; first compound 1 µM) | relative viability ([3]; first compound 0.01 µM) | relative viability ([3]; first compound 0.03162 µM) | relative viability ([3]; first compound 0.1 µM) | relative viability ([3]; first compound 0.3162 µM) | relative viability ([3]; first compound 1 µM)
HCC-44 | 0.94 | 0.711 | 0.785 | 0.878 | 0.938 | 0.956 | 0.944 | 0.851 | 0.981 | 0.778 | 0.803 | 0.773 | 0.786 | 0.758 | 0.633 | 0.649 | 0.661 | 0.577 | 0.636
HCC-827 | 0.405 | 0.433 | 0.395 | 0.388 | 1.03 | 0.985 | 1.06 | 1.03 | 1.04 | 0.884 | 0.917 | 0.879 | 0.865 | 0.882 | 0.287 | 0.315 | 0.241 | 0.249 | 0.267
NCI-H1623 | 0.389 | 0.367 | 0.357 | 0.371 | – | – | – | – | – | – | – | – | – | – | – | – | – | – | –
NCI-H2347 | 0.75 | 0.426 | – | 0.525 | 0.849 | 0.751 | 0.813 | 0.796 | 0.882 | 0.7 | 0.815 | 0.723 | 0.708 | 0.813 | 0.46 | 0.399 | 0.385 | 0.432 | 0.39
NCI-H1395 | 0.701 | 1.01 | 0.806 | 0.771 | 1.04 | 1.14 | 1.11 | 1.08 | 0.882 | – | – | – | – | – | 0.745 | 0.811 | 0.793 | 0.647 | 0.769
NCI-H1563 | – | – | – | – | – | – | – | – | – | 0.853 | 0.923 | 0.799 | 0.772 | 0.81 | 0.76 | 0.674 | 0.678 | 0.702 | 0.854
ABC-1 | 0.164 | 0.162 | 0.183 | 0.227 | – | – | – | – | – | 1.37 | 1.27 | 0.867 | 1.11 | 0.608 | – | – | – | – | –
SW 900 | 0.48 | 0.556 | 0.475 | 0.562 | – | – | – | – | – | – | – | – | – | – | 0.488 | 0.502 | 0.465 | 0.385 | 0.499
NCI-H1648 | 0.565 | 0.356 | – | 0.434 | – | – | – | – | – | – | – | – | – | – | 0.62 | 0.756 | 0.759 | 0.664 | 0.723
A549 | – | – | – | – | 1.16 | 1.35 | 1.28 | 1.08 | 1.06 | 0.665 | 0.706 | 0.718 | 0.666 | 0.63 | – | – | – | – | –
NCI-H1792 | – | – | – | – | 0.722 | 0.501 | 0.619 | 0.62 | 0.604 | 0.961 | 0.948 | 0.95 | 0.891 | 0.78 | 0.759 | 0.684 | 0.632 | 0.782 | 0.687
NCI-H1703 | – | – | – | – | 1.12 | 0.959 | 0.857 | 1.04 | 0.505 | 0.465 | 0.656 | 0.59 | 0.482 | 0.376 | – | – | – | – | –
LCLC-103H | 0.445 | 0.513 | 0.402 | 0.51 | – | – | – | – | – | 0.964 | 1.07 | 1.05 | 1.11 | 1.02 | 0.449 | 0.498 | 0.476 | 0.456 | 0.439
Calu-6 | – | – | – | – | 0.75 | 0.797 | 0.827 | 0.86 | 0.983 | 0.758 | 0.814 | 0.868 | 0.756 | 0.786 | – | – | – | – | –
NCI-H358 | 0.136 | 0.0963 | 0.0944 | 0.108 | – | – | – | – | – | 0.485 | 0.604 | 0.51 | 0.669 | 0.611 | 0.231 | 0.192 | 0.176 | 0.182 | 0.166
NCI-H2342 | 0.453 | 0.519 | 0.387 | 0.374 | – | – | – | – | – | – | – | – | – | – | 0.751 | 0.73 | 0.767 | 0.754 | 0.8
EBC-1 | – | – | – | – | 0.393 | 0.433 | 0.358 | 0.235 | 0.188 | 0.161 | 0.194 | 0.223 | 0.159 | 0.197 | – | – | – | – | –
NCI-H1299 | – | – | – | – | 1.04 | 1.06 | 1.02 | 1.03 | 1.08 | 0.935 | 0.927 | 0.948 | 0.919 | 0.997 | – | – | – | – | –
NCI-H522 | 0.574 | 0.57 | 0.561 | 0.583 | – | – | – | – | – | – | – | – | – | – | 0.989 | 1.02 | 0.915 | 0.95 | 1.17
IA-LM | – | – | – | – | 0.76 | 0.66 | 0.929 | 0.576 | 0.313 | 0.824 | 0.601 | 0.862 | 0.703 | 0.323 | – | – | – | – | –
NCI-H727 | 0.496 | 0.599 | 0.555 | 0.52 | 0.387 | 0.376 | 0.563 | 0.373 | 0.418 | 0.841 | 0.94 | 0.785 | 0.667 | 0.763 | – | – | – | – | –
NCI-H650 | 0.803 | 0.861 | 0.702 | 0.796 | – | – | – | – | – | 0.561 | 0.697 | 0.683 | 0.68 | 0.666 | 0.957 | 0.862 | 0.988 | 1.02 | 0.919
NCI-H661 | 0.376 | 0.361 | 0.359 | 0.358 | – | – | – | – | – | 1.03 | 0.984 | 1.08 | 0.992 | 0.989 | 0.903 | 0.937 | 0.938 | 0.713 | 0.926
NCI-H1793 | 0.274 | 0.269 | 0.223 | 0.262 | 0.381 | 0.462 | 0.465 | 0.375 | 0.41 | – | – | – | – | – | 0.864 | 0.917 | – | 0.845 | 0.923
